This note sets out measurements from patent US8470763B2, “Alpha-amino-N-substituted amides, pharmaceutical composition containing them and uses thereof” (Shanghai Institute of Materia Medica Chinese Academy of …, priority 2007, dated 2013).

Data set [1] concerns MDA-MB-435S human breast cancer cells. In words: MTT assay, proliferation of MDA-MB-435S cells. It counts as cell-based. The note with it: Homo sapiens, 72 h, read-out: Cell Survival Rate IC50. The protocol: The experiments for evaluating the antineoplasmic activities of the compounds according to the present invention were carried out, and the compounds' antineoplasmic activities in vitro was evaluated by determining the inhibitory activities thereof against the proliferation of MDA-MB-435S human breast cancer cells.
The antineoplasmic activities were determined by using the MTT assay, which is based on the metabolic reduction of 3-(4,5-dimethylthylthiazol-2-yl)-2,5-diphenyl tetrazolium bromide (MTT). The dehydrogenases, which are related to NADP (niacinamide adenine dinucleotide phosphate, coenzyme) and present in mitochondrions of living cells, can reduce the yellow MTT to an insoluble, dark purple formazan. […] After the formazan is dissolved in DMSO, the optical density is determined on an ELISA Reader at the wavelength of 550/690 nm.
The adhered MDA-MB-4355 cells in logarithmic growth phase, were digested by 0.05% trypsogen, counted and formulated into a cell suspension with a medium. After counted, the suspension was inoculated on a 96-well plate with 3000 cells and 100 μl medium per well. The inoculated 96-well plate was placed overnight in an incubator at 37 with 5% CO2 to allow the cells to adhere to the wall. On the next day, the administration of the drugs started. Before the administration, into some of the control wells, each was added 20 μl of the MTT solution (5 mg/ml) without removing the medium therein. After incubated for 3 h, the absorption at A550/690 was recorded as the initial cell concentration. For the drug wells, each was added into 100 μl of medium containing 2 μl of compound solution. For the control wells which use DMSO as background control, each was also added into 100 μl of medium containing 2 μl of DMSO. In addition, each experiment was carried out with adriamycin as the positive control. Subsequently, the 96-well plate was incubated in an incubator at 37 with 5% CO2 for 72 h. each compound was tested in triplicate wells (6 μl of compound solution was put into a sterilized eppendorf centrifuge tube, then 300 μl of medium was added and mixed well, and the mixture was distributed into 3 wells respectively), and at six concentrations which form a gradient. 3 days (72 h) later, 40 μl of MTT solution (5 mg/ml) was put into each well directly (without sucking off the medium therein), and the plate was incubated in the incubator for 3 h and then taken out. The liquid in each well was sucked off, and then 100 μl of DMSO was put into each well to dissolve the crystal completely with slight shake. The absorbance of the solution in each well was determined at 550/690 nm on an ELISA Reader as the cell density after treated with the compound. The growth inhibition of compound against breast cancer cells MDA-MB-435S was represented by the cell survival rate, and IC50 was determined from the profile of cell survival rate vs compound concentration. The calculating formula was as follows: cell survival rate=[(cells+compound)A550/690/(cells+compound vector DMSO)A550/690]×100%

The subject of data set [2] is human breast cancer cells MDA-MB-435 transplanted on nude mice. In words: Antineoplasmic activity in vivo, MDA-MB-435 transplanted tumor on nude mice. The following applies: MMC 5 mg/kg, d1, i.v.
Procedure: Dosage: among 3 groups, the dosages of L538 were set at 5, 10 and 20 mg/kg as the high, middle and low dosages, respectively, administrating intravenously 3 times a week; while MMC was administrated intravenously at the first day whit a dosage of 5 mg/kg.
Animals: BALB/CA nude mice, male, 40-45 days old, body weight: 18±1 g, provided by Shanghai Institute of Materia Medica, Chinese Academy of Sciences. […] Animal number in each group: 7 in negative control group, and 4 in administration group.
The amount of inoculated cells was 5×10^6. After the transplanted tumor was formed by inoculation, it was used after passed for 3 generations in nude mice.
Experimental procedure: tumor tissue in productive phase was cut into nubs of about 1.5 mm^3. Under sterile conditions, the nubs were inoculated subcutaneously in right axillary fossa of the nude mice. The diameters of the transplanted tumors on nude mice were measured by a vernier caliper. When the tumors grew up to 100-200 mm^3, the animals were divided randomly into groups. Mice in experimental groups were administered intravenously every other day. […] The total administration duration was 3 weeks. For the positive control, MMC, Mice were administered intravenously once at the first day of a week, and the total administration duration was 3 weeks. Mice in control groups were administrated physiologic saline in equivalent amount. The diameter of the tumor and weight of mice were measured twice a week. The equation for calculating the TV (tumor volume) was as follows: TV=½×a×b^2, • wherein, a is length and b is width. RTV (relative tumor volume) was calculated based on the measured results, and the equation thereof was as follows: RTV=Vt/V0 • wherein, V0 is the tumor volume measured when the mice were grouped (i.e. d0), and Vt is the tumor volume at each measurement. The evaluation index for the antitumor activity was the relative tumor proliferation rateT/C (%).
The calculation equation was as follows: T/C(%)=(TRTV/CRTV)×100, • wherein, TRTV is the RTV of therapeutic Group and CRTV is RTV of negative control group.

pIC50: −log10 of the molar value. A value given as a limit tells only on which side of the number the result lay.

On to `C=CCNC(=O)[C@H](C)NC(=O)[C@H](OC)[C@H](O)[C@@H](O)[C@H](O)/C=C/C(C)(C)C` [Compound L372], for which the negative-log IC50 (pIC50) in data set [1] was 5.45. On the same count and under the same terms, then `CO[C@@H](C(=O)N[C@@H](C)C(=O)NCCO)[C@H](O)[C@@H](O)[C@H](O)/C=C/C(C)(C)C` [Compound L376], with 5.26; and `C=CCNC(=O)[C@@H](NC(=O)[C@H](OC)[C@H](O)[C@@H](O)[C@H](O)/C=C/C(C)(C)C)C(C)C` [Compound L400], with 5.01. For the molecule `CO[C@@H](C(=O)N[C@@H](CC(C)C)C(=O)NCCO)[C@H](O)[C@@H](O)[C@H](O)/C=C/C(C)(C)C` [Compound L418b], the pIC50 in data set [1] is 5.82. Still for that read-out and setting: then `CO[C@@H](C(=O)N[C@@H](C)C(=O)NCCOC(C)C)[C@H](O)[C@@H](O)[C@H](O)/C=C/C(C)(C)C` [Compound L418c], with 4.86; and `C=CCNC(=O)[C@H](CCSC)NC(=O)[C@H](OC)[C@H](O)[C@@H](O)[C@H](O)/C=C/C(C)(C)C` [Compound L432], with 5.34. For `CO[C@@H](C(=O)N[C@@H](C)C(=O)NCCOCC(C)C)[C@H](O)[C@@H](O)[C@H](O)/C=C/C(C)(C)C` [Compound L432a], the pIC50 in data set [1] was 4.40. On the same count and under the same terms, the figure for `CO[C@@H](C(=O)N[C@@H](C)C(=O)NCCCOC(C)C)[C@H](O)[C@@H](O)[C@H](O)/C=C/C(C)(C)C` [Compound L432b] is 4.66. On to `CO[C@@H](C(=O)N[C@@H](C)C(=O)NCCOC(=O)C1CC1)[C@H](O)[C@@H](O)[C@H](O)/C=C/C(C)(C)C` [Compound L444g], for which the pIC50 in data set [1] was 5.22. Regarding `CO[C@@H](C(=O)N[C@@H](C)C(=O)NCCOC(=O)C(C)C)[C@H](O)[C@@H](O)[C@H](O)/C=C/C(C)(C)C` [Compound L446a], the pIC50 in data set [1] is 5.15. With `CO[C@@H](C(=O)N[C@@H](C)C(=O)NCCCOCC(C)C)[C@H](O)[C@@H](O)[C@H](O)/C=C/C(C)(C)C` [Compound L446b], the pIC50 in data set [1] was 5.02. Same read-out and setting: the figure for `CO[C@@H](C(=O)N[C@@H](Cc1ccccc1)C(=O)NCCO)[C@H](O)[C@@H](O)[C@H](O)/C=C/C(C)(C)C` [Compound L452] is 5.28; for `CO[C@@H](C(=O)N[C@@H](C)C(=O)NCCOC(=O)C1CCC1)[C@H](O)[C@@H](O)[C@H](O)/C=C/C(C)(C)C` [Compound L458] it is 6.05; for `CO[C@@H](C(=O)N[C@@H](C)C(=O)NCCOC(=O)C(C)(C)C)[C@H](O)[C@@H](O)[C@H](O)/C=C/C(C)(C)C` [Compound L460] it is 5.47. As for `CO[C@@H](C(=O)N[C@@H](C)C(=O)NCCOCc1ccccc1)[C@H](O)[C@@H](O)[C@H](O)/C=C/C(C)(C)C` [Compound L466], the pIC50 in data set [1] was ~5.00. The same measure, in the same setting: the figure for `CO[C@@H](C(=O)N[C@@H](C)C(=O)NCC(=O)NC1CCCCC1)[C@H](O)[C@@H](O)[C@H](O)/C=C/C(C)(C)C` [Compound L471] is 5.32; for `C#CCCCC(=O)OCCNC(=O)[C@H](C)NC(=O)[C@H](OC)[C@H](O)[C@@H](O)[C@H](O)/C=C/C(C)(C)C` [Compound L471b] it is 6.96.

As for `CO[C@@H](C(=O)N[C@@H](C)C(=O)NCCOC(=O)C1CCCC1)[C@H](O)[C@@H](O)[C@H](O)/C=C/C(C)(C)C` [Compound L472-3], in data set [1], the pIC50 is 6.14. Same read-out and setting: then `CO[C@@H](C(=O)N[C@@H](C)C(=O)NCC(=O)OC1CCCCC1)[C@H](O)[C@@H](O)[C@H](O)/C=C/C(C)(C)C` [Compound L472-4], with 5.81; and `CO[C@@H](C(=O)N[C@@H](C)C(=O)NCCCOC1CCCCC1)[C@H](O)[C@@H](O)[C@H](O)/C=C/C(C)(C)C` [Compound L472], with < 5.60; and `CO[C@@H](C(=O)N[C@@H](C)C(=O)NCCOC(=O)[C@H]1CCCO1)[C@H](O)[C@@H](O)[C@H](O)/C=C/C(C)(C)C` [Compound L474], with 5.05. The same measure, in the same setting: then `CO[C@@H](C(=O)N[C@@H](C)C(=O)NCCOC(=O)c1ccccc1)[C@H](O)[C@@H](O)[C@H](O)/C=C/C(C)(C)C` [Compound L480], with 5.63; and `CO[C@@H](C(=O)N[C@@H](C)C(=O)NCCNC(=O)C1CCCCC1)[C@H](O)[C@@H](O)[C@H](O)/C=C/C(C)(C)C` [Compound L485], with 5.50; and `C=CCNC(=O)[C@H](CCC(=O)OC(C)(C)C)NC(=O)[C@H](OC)[C@H](O)[C@@H](O)[C@H](O)/C=C/C(C)(C)C` [Compound L486e], with 5.55. Still for that read-out and setting: the figure for `CO[C@@H](C(=O)N[C@@H](Cc1c[nH]c2ccccc12)C(=O)NCCO)[C@H](O)[C@@H](O)[C@H](O)/C=C/C(C)(C)C` [Compound L491] is 5.29. For the molecule `CO[C@@H](C(=O)N[C@@H](C)C(=O)NCC(C)OC(=O)C1CCCCC1)[C@H](O)[C@@H](O)[C@H](O)/C=C/C(C)(C)C` (stereo partly drawn) [Compound L500a], the pIC50 in data set [1] is 6.10.

Regarding `CO[C@@H](C(=O)N[C@@H](C)C(=O)NCCCOC(=O)C1CCCCC1)[C@H](O)[C@@H](O)[C@H](O)/C=C/C(C)(C)C` [Compound L500b], the pIC50 in data set [1] is 6.85.

Regarding `CO[C@@H](C(=O)N[C@@H](C)C(=O)NCCOC(=O)CC1CCCCC1)[C@H](O)[C@@H](O)[C@H](O)/C=C/C(C)(C)C` [Compound L500c], the pIC50 in data set [1] is 5.71. Still for that read-out and setting: then `CCCCC(CC)C(=O)OCCNC(=O)[C@H](C)NC(=O)[C@H](OC)[C@H](O)[C@@H](O)[C@H](O)/C=C/C(C)(C)C` (stereo partly drawn) [Compound L502], with 5.59; and `CO[C@@H](C(=O)N[C@H](C(=O)NCCOC(=O)C1CCCCC1)C(C)C)[C@H](O)[C@@H](O)[C@H](O)/C=C/C(C)(C)C` [Compound L514c], with 5.65; and `CO[C@@H](C(=O)N[C@@H](C)C(=O)NCC1CC(Cc2ccccc2)C(=O)O1)[C@H](O)[C@@H](O)[C@H](O)/C=C/C(C)(C)C` (stereo partly drawn) [Compound L521], with 4.60. Same read-out and setting: then `CCC(C)[C@H](NC(=O)[C@H](OC)[C@H](O)[C@@H](O)[C@H](O)/C=C/C(C)(C)C)C(=O)NCCOC(=O)C1CCCCC1` (stereo partly drawn) [Compound L528a], with 5.49. On to `CO[C@@H](C(=O)N[C@@H](CC(C)C)C(=O)NCCOC(=O)C1CCCCC1)[C@H](O)[C@@H](O)[C@H](O)/C=C/C(C)(C)C` [Compound L528b], for which the pIC50 in data set [1] is 5.58.

On to `CCCC[C@H](NC(=O)[C@H](OC)[C@H](O)[C@@H](O)[C@H](O)/C=C/C(C)(C)C)C(=O)NCCOC(=O)C1CCCCC1` [Compound L528c], for which the pIC50 in data set [1] is 5.54. Turning to `CO[C@@H](C(=O)N[C@@H](C)C(=O)NCCOC(=O)OCCCc1ccccc1)[C@H](O)[C@@H](O)[C@H](O)/C=C/C(C)(C)C` [Compound L538b], in data set [1], the pIC50 was 6.12. In the case of `C=CCNC(=O)[C@H](Cc1cn(COCc2ccccc2)cn1)NC(=O)[C@H](OC)[C@H](O)[C@@H](O)[C@H](O)/C=C/C(C)(C)C` [Compound L558b], the pIC50 in data set [1] is 5.72. On the same count and under the same terms, the figure for `CO[C@@H](C(=O)N[C@@H](C)C(=O)NCCOC(=O)CCCCCCCCCN=[N+]=[N-])[C@H](O)[C@@H](O)[C@H](O)/C=C/C(C)(C)C` [Compound L572] is 6.96.

Regarding `CO[C@@H](C(=O)N[C@@H](CCCCNC(=O)OC(C)(C)C)C(=O)NCCOC(=O)C1CCCCC1)[C@H](O)[C@@H](O)[C@H](O)/C=C/C(C)(C)C` [Compound L643], the pIC50 in data set [1] was 5.81.

As to `CO[C@@]12[C@H](COC(N)=O)C3=C(C(=O)C(C)=C(N)C3=O)N1C[C@@H]1N[C@@H]12` [MMC, mitomycin, reference compound], in data set [2] (P <0.05), the “T/C (%)” value turned out to be 44.3%. Also, the “TV (mm^3) d21” value in data set [2] (d0 132 ± 52) turned out to be 844 ± 308 mm^3. In addition, the RTV in data set [2] (d21) was 6.6 ± 1.6. Further, the “Body Weight(g) Ultimate” value in data set [2] (initial 17.8 g) worked out at 21.7 g.
